15 compounds from patent US11780854B2, “Prolyl hydroxylase domain-containing protein (PHD) inhibitors and uses thereof” (Insilico Medicine IP Limited, priority 2021, dated 2023) can be followed below.

One experiment has as its target PHD2 (Homo sapiens (Human), UniProt Q9GZT9). In words: PHD2 Enzymatic Assay (AlphaScreen). In kind it is biochemical. The settings on record: 30 min preincubation at RT.
In another experiment the test system is Hep3B cell. In words: EPO Elisa Assay in Hep3B cells. In kind it is cell-based. The settings on record: Homo sapiens, 24 h at 37° C.

Some results are limits rather than exact numbers.

PHD2, sequence (Q9GZT9 whole entry): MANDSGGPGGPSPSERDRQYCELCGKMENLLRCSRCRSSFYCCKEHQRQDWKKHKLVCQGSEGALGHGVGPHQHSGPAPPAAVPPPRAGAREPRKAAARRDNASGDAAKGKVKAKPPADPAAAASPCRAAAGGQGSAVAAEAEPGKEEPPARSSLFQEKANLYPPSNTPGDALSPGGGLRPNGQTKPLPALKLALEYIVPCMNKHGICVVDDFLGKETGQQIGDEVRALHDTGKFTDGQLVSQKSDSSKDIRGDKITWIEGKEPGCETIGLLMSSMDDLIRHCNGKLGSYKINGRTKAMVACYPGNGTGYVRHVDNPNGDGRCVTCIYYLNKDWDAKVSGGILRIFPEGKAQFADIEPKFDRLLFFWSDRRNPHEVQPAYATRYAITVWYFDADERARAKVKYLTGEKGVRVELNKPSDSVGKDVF

One may read the IC50 as the concentration needed to halve the response being measured. Read a low IC50 as inhibition by little substance. What is called EC50 is the concentration needed to bring the measured effect to its halfway point. Low readings indicate higher potency in that assay, high ones lower potency in that assay. For `N#Cc1ccc(CNC(=O)c2ncc3nc(N4C[C@@H]5C[C@H]4CN5C4CC4)ccc3c2O)c(Cl)c1` [compound 68], at PHD2, the IC50 lay in the range of 5 to 20 nM. In addition, the EC50 with Hep3B cell was under 2500 nM. Regarding `CC(C)(C)OC(=O)N1CCOC2(C1)CN(c1ccc3c(O)c(C(=O)NCc4ccc(C#N)nc4)ncc3n1)C2` [compound 118], the IC50 against PHD2 is under 5 nM. In the experiment with Hep3B cell, this compound came in with an EC50 of 2500 to 5000 nM. On the same counts, the results for `N#Cc1ccc(CNC(=O)c2ncc3nc(N4C[C@H]5C[C@@H]4CN5C4CC4)ccc3c2O)c(Cl)c1` [compound 69] are 5 to 20 nM and 2500 to 5000 nM. Turning to `CC(C)(C)OC(=O)N1C[C@@H]2CN(c3ccc4c(O)c(C(=O)NCc5ccc(C#N)nc5)ncc4n3)C[C@@H]2C1` [compound 117], the IC50 at PHD2 was under 5 nM. In the experiment with Hep3B cell, this compound yielded an EC50 of 2500 to 5000 nM.

In the experiment on Hep3B cell, `N#Cc1ccc(CNC(=O)c2ncc3nc(N4CC5CC4CO5)ccc3c2O)cn1` (centres unmarked) [compound 30] gave an EC50 of 2500 to 5000 nM. `CN1C[C@@H]2C[C@H]1CN2c1ccc2c(O)c(C(=O)NCc3ccc(C#N)cc3Cl)ncc2n1` [compound 58]: the IC50 against PHD2 was under 5 nM. The same compound had an EC50 in the experiment on Hep3B cell of 10000 to 100000 nM. With `N#Cc1ccc(CNC(=O)c2ncc3nc(N4C[C@H]5C[C@@H]4CO5)ccc3c2O)cn1` [compound 43], the IC50 on PHD2 is under 5 nM. Moreover, in the experiment on Hep3B cell, the EC50 was 2500 to 5000 nM. With `CN1CCC2(CCN(c3ccc4c(O)c(C(=O)NCc5ccc(C#N)nc5)ncc4n3)CC2)C1=O` [compound 67], the IC50 on PHD2 was under 5 nM. The compound further came in with an EC50 in the experiment on Hep3B cell of 5000 to 7500 nM. As for `CC(C)(C)OC(=O)N1CC2(C1)CN(c1ccc3c(O)c(C(=O)NCc4ccc(C#N)nc4)ncc3n1)C2` [compound 91], the IC50 at PHD2 was under 5 nM. The compound also showed an EC50 in the experiment with Hep3B cell of under 2500 nM. Consider `N#Cc1ccc(CNC(=O)c2ncc3nc(N4CCC5(COC5)C4)ccc3c2O)cn1` [compound 25], for which the IC50 against PHD2 is under 5 nM. The compound further showed an EC50 with Hep3B cell of under 2500 nM. The compound `CC(C)(C)OC(=O)N1C[C@@H]2C[C@H]1CN2c1ccc2c(O)c(C(=O)NCc3ccc(C#N)nc3)ncc2n1` [compound 116] yielded an IC50 at PHD2 of under 5 nM. Besides, in the experiment with Hep3B cell, the concentration giving a half-maximal response (EC50) was 10000 to 100000 nM. Compound `N#Cc1ccc(CNC(=O)c2ncc3nc(N4CCC5(COC5)C4)ccc3c2O)c(Cl)c1` [compound 8] came in with an IC50 against PHD2 of 5 to 20 nM. Moreover, the EC50 with Hep3B cell is 2500 to 5000 nM.

As to `CC(C)(C)OC(=O)N[C@@H]1CN(c2ccc3c(O)c(C(=O)NCc4ccc(C#N)nc4)ncc3n2)CC12CC2` [compound 145], the IC50 against PHD2 was under 5 nM. For the same compound, the EC50 in the experiment on Hep3B cell is 10000 to 100000 nM.

With `N#Cc1ccc(CNC(=O)c2ncc3nc(N4C[C@@H]5C[C@H]4CO5)ccc3c2O)cn1` [compound 44], the IC50 at PHD2 is under 5 nM. This compound also registered an EC50 with Hep3B cell of 2500 to 5000 nM.

`N#Cc1ccc(CNC(=O)c2ncc3nc(N4C[C@@H]5C[C@H]4CN5C4CC4)ccc3c2O)cn1` [compound 80] returned an IC50 at PHD2 of under 5 nM. This compound also registered an EC50 in the experiment on Hep3B cell of under 2500 nM.
